Measurements reported in patent publication US6441177B1 (Hoffmann-La Roche Inc., priority 1995, dated 2002).
Values after ≈ are worked out from the molar mass of the structure shown. Like-named read-outs stand apart in the source and are kept apart here.

Assays:
[1] = biological target: T1, human liver microsomal 2,3-oxidosqualene-lanosterol cyclase (OSC) (Homo sapiens, UniProt P48449); experiment: Inhibition of human liver microsomal 2,3-oxidosqualene-lanosterol cyclase (OSC); type: biochemical; details: human liver microsomes; for IC50: concentration reducing conversion of MOS into lanosterol to 50% of control; for inhibition at 0.1 µM: constant test substance concentration of 100 nM, 1 hour at 37° C., against controls
T1 construct: Liver microsomes from a healthy volunteer were prepared in sodium phosphate buffer (pH 7.4); from tissue; host or cells: human liver microsomes from a healthy volunteer
T1 sequence (P48449 1-732): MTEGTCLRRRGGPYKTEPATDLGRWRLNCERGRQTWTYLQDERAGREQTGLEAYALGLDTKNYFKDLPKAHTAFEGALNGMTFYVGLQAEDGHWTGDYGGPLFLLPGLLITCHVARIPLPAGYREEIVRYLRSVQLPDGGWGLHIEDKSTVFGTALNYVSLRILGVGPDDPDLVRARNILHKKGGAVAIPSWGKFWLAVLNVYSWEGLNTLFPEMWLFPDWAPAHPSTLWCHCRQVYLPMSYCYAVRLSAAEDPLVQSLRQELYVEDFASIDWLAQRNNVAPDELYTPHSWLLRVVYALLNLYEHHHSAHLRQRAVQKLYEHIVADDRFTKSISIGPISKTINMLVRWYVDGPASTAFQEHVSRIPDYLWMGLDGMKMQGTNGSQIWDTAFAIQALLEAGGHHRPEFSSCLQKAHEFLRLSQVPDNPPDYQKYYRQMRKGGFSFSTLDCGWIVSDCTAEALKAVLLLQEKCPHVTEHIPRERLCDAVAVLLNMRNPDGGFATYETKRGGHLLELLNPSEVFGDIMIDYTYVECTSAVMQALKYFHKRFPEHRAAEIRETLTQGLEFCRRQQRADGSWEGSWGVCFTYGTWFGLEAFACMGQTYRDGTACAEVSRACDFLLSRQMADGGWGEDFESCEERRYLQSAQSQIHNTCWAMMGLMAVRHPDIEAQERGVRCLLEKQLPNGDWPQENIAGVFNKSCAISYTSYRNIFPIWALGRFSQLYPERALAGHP
Protocol: Inhibition of Human Liver Microsomal 2,3-Oxidosqualene-lanosterol Cyclase (OSC)
Liver microsomes from a healthy volunteer were prepared in sodium phosphate buffer (pH 7.4). The OSC activity was measured in the same buffer which also contained 1 mM EDTA and 1 mM dithiothreitol. The microsomes were diluted to 0.8 mg/ml protein in cold phosphate buffer. Dry [^14C]R,S-monooxidosqualene (MOS; 12.8 mCi/mmol) was diluted to 20 nCi/μl with ethanol and mixed with phosphate buffer-1% BSA (Bovine Serum Albumin). A stock solution of 1 mM test substance in DMSO was diluted to the desired concentration with phosphate buffer-1% BSA. 40 μl of microsomes were mixed with 20 μl of the solution of the test substance and the reaction was subsequently started with 20 μl of the [^14C]R,S-MOS solution. The final conditions were: 0.4 mg/ml of microsomal proteins and […] of [^14C]R,S-MOS in phosphate buffer, pH 7.4, containing 0.5% albumin, DMSO <0.1% and ethanol <2%, in a total volume of 80 μl.
After 1 hour at 37° C. the reaction was stopped by the addition of 0.6 ml of 10% KOH-methanol, 0.7 ml of water and 0.1 ml of hexane:ether (1:1, v/v) which contained 25 μg of non-radioactive MOS and 25 μg of lanosterol as the carrier. After shaking 1 ml of hexane:ether (1:1, v/v) was added to each test tube, these were again shaken and then centrifuged. The upper phase was transferred into a glass test tube, the lower phase was again extracted with hexane:ether and combined with the first extract. The entire extract was evaporated to dryness with nitrogen and the residue was suspended in 50 μl of hexane:ether and applied to a silica gel plate. Chromatographic separation was effected in hexane:ether (1:1, v/v) as the eluent. […] After drying radioactive MOS and lanosterol were observed on the silica gel plate. The ratio of MOS to lanosterol was determined from the radioactive bands in order to determine the OSC inhibition.
The test was carried out on the one hand with a constant test substance concentration of 100 nM and the percentage OSC inhibition against controls was calculated. In addition, the test was carried out with different test substance concentrations and subsequently the IC50 value was calculated, i.e. the concentration required to reduce the conversion of MOS into lanosterol to 50% of the control value.

[2] = test system: Aspergillus fumigatus; experiment: Antifungal activity in vitro, microdilution method; type: cell-based; details: growth inhibition, incubation at 27° C. for 48 hours, read-out: IC50 (mg/ml) for: A. fumigatus after: 48 hours
Protocol: (§1) Antifungal Activity In Vitro The compounds were tested for antifungal activity against Candida albicans, Cryptococcus neoformans and Aspergillus fumigatus using a microdilution method on microtitre plates (96 wells per plate). Yeast supplemented with 1% glucose and 0.25% di-potassium phosphate was used for the three fungal strains. The fungal cells were inoculated at 3×10^4 CFU (Colony Forming Unit) in […] of medium per well. The medium contained increasing concentrations of test substance. After incubation at 27° C. for 24 or 48 hours the turbidity in each well was measured by a microtitre plate reader. The growth inhibition was calculated in comparison to a control (without test substance). The IC50 value given in the following Table is the concentration of test substance at which the growth is inhibited by 50%.

[3] = test system: Candida albicans; experiment: Antifungal activity in vitro, microdilution method; type: cell-based; details: growth inhibition
Protocol: as §1

[4] = test system: Cryptococcus neoformans; experiment: Antifungal activity in vitro, microdilution method; type: cell-based; details: growth inhibition, incubation at 27° C. for 48 hours, read-out: IC50 (mg/ml) for: C. neoformans after: 48 hours
Protocol: as §1

[5] = incubation at 27° C. for 24 hrs., read-out: IC50 (mg/ml) for: C. albicans after: 24 hrs.
[6] = incubation at 27° C. for 48 hrs., read-out: IC50 (mg/ml) for: C. albicans after: 48 hrs.

SMILES	IC50 [1] [nM]	inhibition at 0.1 µM [1] [%]	also measured
CN(C[C@@H]1C[C@H]1COc1ccc(C(=O)c2ccc(Br)cc2)cc1)C1CC1 (racemic) [Example 31, (1RS,2RS)-(4-bromo-phenyl)-[4-[2-[(cyclopropyl-methyl-amino)-methyl]-cyclopropylmethoxy]-phenyl]-methanone]	22	85	–
C=CCN(C)CCCCCCOc1ccc(C(C)(O)c2ccc(Br)cc2)c(F)c1 (racemic) [Example 38, (RS)-1-[4-[6-(allyl-methyl-amino)-hexyloxy]-2-fluoro-phenyl]-1-(4-bromo-phenyl)-ethanol]	21	82	–
C=CCN(C)Cc1ccc(-c2ccc(C(F)c3ccc(Br)cc3)cc2)cc1 (racemic) [Example 48, (RS)-allyl-[4′-[(4-bromo-phenyl)-fluoro-methyl]-biphenyl-4-ylmethyl]-methyl-amine]	–	–	IC50 [2]: 0.018 mg/mL (≈ 42.4 µM); IC50 [3, 5]: < 0.00032 mg/mL; IC50 [3, 6]: < 0.00032 mg/mL; IC50 [4]: 0.00047 mg/mL (≈ 1.11 µM)
O=C(c1ccc(Br)cc1)c1ccc(OC/C=C/CN2CCC(O)CC2)cc1 [Example 2l, (E)-(4-bromo-phenyl)-[4-[4-(4-hydroxy-piperidin-1-yl)-but-2-enyloxy]-phenyl]-methanone]	–	81	–
C=CCN(C)CCCCCCOc1ccc(C(=O)c2ccc(Br)cc2)c(SC)c1 [Example 3, [4-[6-(allyl-methyl-amino)-hexyloxy]-2-methylsulphanyl-phenyl]-(4-bromo-phenyl)-methanone]	4.9	92	–
CN(C/C=C/COc1ccc(C(=O)c2ccc(C#N)cc2)cc1F)C1CC1 [Example 13b, (E)-4-[4-[4-(cyclopropyl-methyl-amino)-but-2-enyloxy]-3-fluoro-benzoyl]-benzonitrile]	7.9	93.5	–
C=CCN(C)C/C=C/COc1ccc(C(=O)/C=C/C=C(C)C)cc1F [Example 25, (E)-1-[4-[(E)-4-(allyl-methyl-amino)-but-2-enyloxy]-3-fluoro-phenyl]-5-methyl-hexa-2,4-dien-1-one]	–	–	IC50 [2]: 0.00082 mg/mL (≈ 2.39 µM); IC50 [3, 5]: 0.00032 mg/mL (≈ 0.932 µM); IC50 [3, 6]: < 0.00032 mg/mL; IC50 [4]: 0.001 mg/mL (≈ 2.91 µM)
C=CCN(C)C/C=C/COc1ccc(C(=O)/C=C/C=C(C)C)cc1 [Example 26c, (E)-1-[4-[(E)-4-(allyl-methyl-amino)-but-2-enyloxy]-phenyl]-5-methyl-hexa-2,4-dien-1-one]	–	–	IC50 [2]: 0.0084 mg/mL (≈ 25.8 µM); IC50 [3, 5]: 0.00049 mg/mL (≈ 1.51 µM); IC50 [3, 6]: 0.0057 mg/mL (≈ 17.5 µM); IC50 [4]: 0.0027 mg/mL (≈ 8.3 µM)
C=CCN(C)CCCCCCNc1ccc(C(=O)c2ccc(Br)cc2)cc1F [Example 30, [4-[6-(allyl-methyl-amino)-hexylamino]-3-fluoro-phenyl]-(4-bromo-phenyl)-methanone]	3.2	93	–
C=CCN(C)CCCCCCOc1ccc(C(=O)c2ccc(Br)cc2)c(N(C)C)c1 [Example 34a, [4-[6-(allyl-methyl-amino)-hexyloxy]-2-dimethylamino-phenyl]-(4-bromo-phenyl)-methanone]	7.1	98	–
C=CCN(C)CCCCCCOc1ccc(C(=O)c2ccc(Br)cc2)c(O)c1 [Example 35, [4-[6-(allyl-methyl-amino)-hexyloxy]-2-hydroxy-phenyl]-(4-bromo-phenyl)-methanone]	–	97	–

The next lines start with results.

IC50 [1] [nM]	inhibition at 0.1 µM [1] [%]	SMILES	also measured
23.7	78	C=CCN(C)C/C=C/COc1ccc(C(O)(C=C)c2ccc(Br)cc2)cc1 (racemic) [Example 8b, (E)-(RS)-1-[4-[4-(allyl-methyl-amino)-but-2-enyloxy]-phenyl]-1-(4-bromo-phenyl)-prop-2-en-1-ol]	–
3.6	85	CN(C[C@@H]1C[C@H]1COc1ccc(C(=O)c2ccc(Br)cc2)cc1F)C1CC1 (racemic) [Example 32a, (1RS,2RS)-(4-bromo-phenyl)-[4-[2-[(cyclopropyl-methyl-amino)-methyl]-cyclopropylmethoxy]-3-fluoro-phenyl]-methanone]	–
12.3	87	C=CCN(C)C/C=C/COc1ccc(C(C)(O)CCC=C(C)C)cc1 (racemic) [Example 39a, (E)-(RS)-2-[4-[4-(allyl-methyl-amino)-but-2-enyloxy]-phenyl]-6-methyl-hept-5-en-2-ol]	–
2.4	90	C=CCN(C)C/C=C/COc1cc(F)c(C(=O)c2ccc(Br)cc2)cc1F [Example 1, (E)-[4-[4-(allyl-methyl-amino)-but-2-enyloxy]-2,5-difluoro-phenyl]-(4-bromo-phenyl)-methanone]	–
–	66	CN(CCCCCCOc1ccc(C(=O)c2ccc(Br)cc2)c(F)c1)C1CC1 [Example 2p, (4-bromo-phenyl)-[4-[6-(cyclopropyl-methyl-amino)-hexyloxy]-2-fluoro-phenyl]-methanone]	–
13.5	90	C=CCN(C)C/C=C/COc1ccc(C(=C)c2ccc(Br)cc2)cc1 [Example 8f, (E)-allyl-[4-[4-[1-(4-bromo-phenyl)-vinyl]-phenoxy]-but-2-enyl]-methyl-amine]	–
–	82	CN(CCCCCCOc1ccccc1C(=O)c1ccc(Br)cc1)C1CC1 [Example 13a, [6-[6-(cyclopropyl-methyl-amino)-hexyloxy]-phenyl]-(4-bromo-phenyl)-methanone]	–
32	83	CN(CCCCCCOc1ccc(C(=O)c2ccc(Br)cc2)cc1)CC1CC1 [Example 15, (4-bromo-phenyl)-[4-[6-(cyclopropylmethyl-methyl-amino)-hexyloxy]-phenyl]-methanone]	–
2.3	98	C=CCN(C)CCCCCCOc1ccc(C(=O)c2ccc(Br)cc2)c(NC)c1 [Example 33, [4-[6-(allyl-methyl-amino)-hexyloxy]-2-methylamino-phenyl]-(4-bromo-phenyl)-methanone]	–
5.5	94	C=CCN(C)CCCCCCOC1CCN(S(=O)(=O)c2ccc(Br)cc2)CC1 [Example 49, allyl-[6-[1-(4-bromo-phenylsulphonyl)-piperidin-4-yloxy]-hexyl]-methyl-amine]	–
12.8	87.5	C=CCN(C)C/C=C/COc1ccc(C(=NOC)c2ccc(Br)cc2)cc1 [Example 51, (E)-and/or (Z)-[4-[(E)-4-(ally-methyl-amino)-but-2-enyloxy]-phenyl]-(4-bromo-phenyl)-methanone-0-methyl-oxime]	–
